Read-outs that look alike come from different tables or passages of the source.
Columns and labels:
[1] = molecular target: T1, Jack Bean α-mannosidase (Canavalia ensiformis, UniProt C0HJB3); assay: Inhibition assays on Jack-Bean α-mannosidase (p-nitrophenyl-α-D-mannopyranoside hydrolysis, Dixon and Lineweaver–Burk); assay type: biochemical
T1 construct: purchased Sigma Aldrich, St. Louis, MO, USA
T1 sequence (C0HJB3 1-981): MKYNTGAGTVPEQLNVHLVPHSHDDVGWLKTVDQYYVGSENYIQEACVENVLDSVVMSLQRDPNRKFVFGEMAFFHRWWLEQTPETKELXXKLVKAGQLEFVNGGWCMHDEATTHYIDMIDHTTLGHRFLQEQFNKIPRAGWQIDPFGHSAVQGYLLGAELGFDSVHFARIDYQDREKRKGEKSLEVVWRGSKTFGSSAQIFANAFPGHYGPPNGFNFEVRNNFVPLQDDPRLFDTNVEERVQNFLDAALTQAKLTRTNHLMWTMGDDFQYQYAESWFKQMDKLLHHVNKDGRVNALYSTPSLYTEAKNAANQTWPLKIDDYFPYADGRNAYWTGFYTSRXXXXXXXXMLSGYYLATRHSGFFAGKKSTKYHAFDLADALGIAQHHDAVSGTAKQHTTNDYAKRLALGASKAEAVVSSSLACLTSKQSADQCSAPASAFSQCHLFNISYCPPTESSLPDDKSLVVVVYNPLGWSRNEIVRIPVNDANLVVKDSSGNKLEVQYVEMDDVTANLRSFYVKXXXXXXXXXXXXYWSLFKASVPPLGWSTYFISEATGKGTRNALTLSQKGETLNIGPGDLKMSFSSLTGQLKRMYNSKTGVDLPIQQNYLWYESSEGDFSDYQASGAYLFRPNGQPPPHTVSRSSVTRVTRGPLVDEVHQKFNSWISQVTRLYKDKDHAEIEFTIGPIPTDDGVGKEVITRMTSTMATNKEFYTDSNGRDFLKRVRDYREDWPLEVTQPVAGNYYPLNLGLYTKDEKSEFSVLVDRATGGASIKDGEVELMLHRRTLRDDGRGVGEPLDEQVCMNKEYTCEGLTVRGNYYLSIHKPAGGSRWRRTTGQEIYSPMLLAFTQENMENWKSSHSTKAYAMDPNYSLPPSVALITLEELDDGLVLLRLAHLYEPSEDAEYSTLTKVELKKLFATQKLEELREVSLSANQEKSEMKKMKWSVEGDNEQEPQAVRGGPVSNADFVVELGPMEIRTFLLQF
Procedure: p-nitrophenyl-α-D-mannopyranoside and α-mannosidase (EC 3.2.1.24, from Jack Bean) were purchased from Sigma Aldrich, St. Louis, MO, USA. Inhibition constants were determined spectrophotometrically by measuring the residual hydrolytic activities of the α-mannosidase against p-nitrophenyl-α-D-mannopyranoside in the presence and absence of an inhibitor. Each well was filled with a total volume of 100 µL, containing 0.2 M acetate buffer pH 5, inhibitor, substrate and enzyme. All kinetics were performed between 25 °C and 27 °C and started by enzyme addition. After 30–50 min of incubation, the reaction was quenched by addition of 100 µL of 1M Na2CO3. The absorbance of the resulting solution was determined at 405 nm. Ki values were determined in triplicate, using the Dixon and Lineweaver–Burk graphical methods within Microsoft Excel. Stock solutions of inhibitors were prepared with DMSO/buffer for final well DMSO content under 5%. The stability of the enzyme in the presence of the same concentrations of DMSO was controlled and enzyme activity was unaffected.

[2] = Isothermal titration calorimetry of iodide binding to bambusuril; details: in water, ITC
Procedure: ITC measurements were performed with a VP-ITC microcalorimeter (Microcal, GEHealthcare). Experiments were carried out in water and in a solution of K2HPO4 (1.5 mM) in mili-Q water at 298.15 ± 0.1 K. Anion binding to BU was investigated via a classical isothermal titration experiment (10 µL additions) and a single injection method (SIM). Injection of sodium iodide solution was added automatically to the BU solution present in the calorimeter cell while stirring at 307 rpm. Integrated heat effects were analyzed by non-linear regression using a single-site binding model (Microcal Origin 7). The experimental data fitted to a theorical titration curve, giving the association constant Ka, the enthalpy of binding ΔH° and the entropy ΔS°. The free energy ΔG° was calculated from the equation: ΔG° = ΔH° − TΔS°, where T is the absolute temperature. The first smaller addition (2 µL), which was used to compensate for diffusion of the guest from the injector during equilibration, was discarded prior to data fitting.
Figure S1. Isothermal titration calorimetry of I- binding to (DNJ-C6)12BU[6] 6 in H2O.
Top: Data were obtained from the sequential injections of 10µL of guest solution (0.6 mM NaI) to BU
6 (0.05 mM). Bottom: Plot of the total heat released as a function of the total ligand concentration
for the titration shown upper.
(1 picture or pasted object on this page, not shown here)

[3] = molecular target: T1, Jack Bean α-mannosidase; details: cited from earlier work

O=C1N(Cc2cn(CCCCCCN3C[C@H](O)[C@@H](O)[C@H](O)[C@H]3CO)nn2)C2C(N1Cc1cn(CCCCCCN3C[C@H](O)[C@@H](O)[C@H](O)[C@H]3CO)nn1)N1CN3C(=O)N(CN4C(=O)N(CN5C(=O)N(CN6C(=O)N(CN7C(=O)N(CN2C1=O)C1C7N(Cc2cn(CCCCCCN7C[C@H](O)[C@@H](O)[C@H](O)[C@H]7CO)nn2)C(=O)N1Cc1cn(CCCCCCN2C[C@H](O)[C@@H](O)[C@H](O)[C@H]2CO)nn1)C1C6N(Cc2cn(CCCCCCN6C[C@H](O)[C@@H](O)[C@H](O)[C@H]6CO)nn2)C(=O)N1Cc1cn(CCCCCCN2C[C@H](O)[C@@H](O)[C@H](O)[C@H]2CO)nn1)C1C5N(Cc2cn(CCCCCCN5C[C@H](O)[C@@H](O)[C@H](O)[C@H]5CO)nn2)C(=O)N1Cc1cn(CCCCCCN2C[C@H](O)[C@@H](O)[C@H](O)[C@H]2CO)nn1)C1C4N(Cc2cn(CCCCCCN4C[C@H](O)[C@@H](O)[C@H](O)[C@H]4CO)nn2)C(=O)N1Cc1cn(CCCCCCN2C[C@H](O)[C@@H](O)[C@H](O)[C@H]2CO)nn1)C1C3N(Cc2cn(CCCCCCN3C[C@H](O)[C@@H](O)[C@H](O)[C@H]3CO)nn2)C(=O)N1Cc1cn(CCCCCCN2C[C@H](O)[C@@H](O)[C@H](O)[C@H]2CO)nn1 (stereo partly shown) [Compound 6, (DNJ-C6)12BU[6]]
Inhibition Mode [1]: mixed
Ki ([1]; 0.2 M acetate buffer pH 5, 25-27 °C, for mixed inhibitors the first value of the cell (Ki)): 68.2 µM
Ki' ([1]; mixed inhibition, second value of the cell (Ki' in supplement)): 147 ± 21 µM
Rp (relative potency) ([1]; rp = Ki (monovalent reference)/Ki (neoglycocluster)): 4.7
Ka (iodide) [2]: 480000 M⁻¹

CCCn1cc(CCCCCCCCCN2C[C@H](O)[C@@H](O)[C@H](O)[C@H]2CO)nn1 [Compound 22]
Ki ([3]; monovalent C9 reference): 188 µM
Inhibition Mode ([3]; monovalent references): competitive

From paper PMC9330389, “Bambus[4,6]urils as Dual Scaffolds for Multivalent Iminosugar Presentation and Ion Transport: Access to Unprecedented Glycosidase-Directed Anion Caging Agents” (Molecules, 2022)
